Results reported in patent publication US8138168B1 (Takeda Pharmaceutical Company Limited, priority 2007, dated 2012).

Molecular target: T1, Recombinant human renin (Homo sapiens, UniProt P00797)
T1 construct: isolate the active form (residues 67-406); made in house; host or cells: FreeStyle 293-F cells (transient expression of pcDNA3.1(+)/hREN)
T1 sequence (P00797 67-406): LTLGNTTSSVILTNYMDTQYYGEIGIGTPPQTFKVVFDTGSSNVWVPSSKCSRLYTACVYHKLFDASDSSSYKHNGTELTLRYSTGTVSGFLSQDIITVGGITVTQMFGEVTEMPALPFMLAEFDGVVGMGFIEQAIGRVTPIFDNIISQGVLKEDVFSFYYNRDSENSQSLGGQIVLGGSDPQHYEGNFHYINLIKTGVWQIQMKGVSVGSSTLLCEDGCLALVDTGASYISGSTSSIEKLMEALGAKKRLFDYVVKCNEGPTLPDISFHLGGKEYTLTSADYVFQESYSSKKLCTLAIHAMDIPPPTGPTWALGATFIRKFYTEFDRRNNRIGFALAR
Experiment: In vitro enzymatic activity assay of renin inhibitors (fluorogenic peptide substrate)
Format: biochemical
Settings: read-out: IC50 of Exemplified Compounds Against Renin
How it was run: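 Recombinant human renin (3 nM final) pre-incubated 10 min at 37 °C with compounds in pH 7.4 Hepes/EDTA/DTT/0.1 mg/mL BSA/Brij35 buffer (optionally plus 2% BSA), 5% DMSO final; fluorogenic QXL520/HiLyteFluo488 peptide substrate added.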

Structure (SMILES)	IC50 [nM]
COCCCn1c(C2CCCN(C(=O)C[C@H](N)Cc3ccc4ccccc4c3)C2)nc2cccc(C(=O)OC)c21 (stereo partly drawn) [Compound 112, methyl 2-(1-((R)-3-amino-4-(naphthalen-2-yl)butanoyl)piperidin-3-yl)-1-(3-methoxypropyl)-1H-benzo[d]imidazole-7-carboxylate]	> 1000
COCCCn1c([C@@H]2CCCN(C(=O)C[C@H](N)Cc3ccc(-c4ccc(OC)cc4)cc3)C2)nc2ccccc21 [Compound 156, (R)-3-amino-4-(4′-methoxybiphenyl-4-yl)-1((R)-3-(1-(3-methoxypropyl)-1H-benzo[d]imidazol-2-yl)piperidin-1-yl)butan-1-one]	< 100
COCCCn1c([C@@H]2CCCN(C(=O)C[C@H](N)Cc3ccc(-c4c(C)n[nH]c4C)cc3)C2)nc2ccccc21 [Compound 137, (R)-3-amino-4-(4-(3,5-dimethyl-1H-pyrazol-4-yl)phenyl)-1-((R)-3-(1-(3-methoxypropyl)-1H-benzo[d]imidazol-2-yl)piperidin-1-yl)butan-1-one]	< 100
COCCCn1c([C@@H]2CCCN(C(=O)[C@@H]3CN(C(=O)C(C)C)C[C@H]3N)C2)nc2ccccc21 [Compound 396, 1-((3S,4R)-3-amino-4-((R)-3-(1-(3-methoxypropyl)-1H-benzo[d]imidazol-2-yl)piperidine-1-carbonyl)pyrrolidin-1-yl)-2-methylpropan-1-one]	> 1000
COC(=O)[C@@H](Cc1ccccc1)NC(=O)N1CCCC(c2nc3ccccc3[nH]2)C1 (stereo partly drawn) [Compound 13, (2R)-methyl 2-(3-(1H-benzo[d]imidazol-2-yl)piperidine-1-carboxamido)-3-phenylpropanoate]	> 1000
CNC(=O)Nc1ccc(-c2ccc(C[C@@H](N)CC(=O)N3CCC[C@@H](c4nc5ccccc5n4CCCOC)C3)cc2)cc1 [Compound 175, 1-(4′-((R)-2-amino-4-((R)-3-(1-(3-methoxypropyl)-1H-benzo[d]imidazol-2-yl)piperidin-1-yl)-4-oxobutyl)biphenyl-4-yl)-3-methylurea]	< 100

Next, values leading:

IC50 [nM]	Structure (SMILES)
> 1000	COCCCn1c([C@@H]2CCCN(C(=O)[C@@H]3CN(S(=O)(=O)c4cccc(OC(F)F)c4)C[C@H]3N)C2)nc2ccccc21 [Compound 419, ((3R,4S)-4-amino-1-(3-(difluoromethoxy)phenylsulfonyl)pyrrolidin-3-yl)((R)-3-(1-(3-methoxypropyl)-1H-benzo[d]imidazol-2-yl)piperidin-1-yl)methanone]
100 to 1000	COCCCn1c([C@@H]2CCCN(C(=O)[C@@H]3CN(C(=O)Nc4cccc(Cl)c4)C[C@H]3N)C2)nc2ccccc21 [Compound 378, (3S,4R)3-amino-N-(3-chlorophenyl)-4-((R)-3-(1-(3-methoxypropyl)-1H-benzo[d]imidazol-2-yl)piperidine-1-carbonyl)pyrrolidine-1-carboxamide]
< 100	COCCCn1c([C@@H]2CCCN(C(=O)[C@@H]3CN(S(=O)(=O)c4cccc(NC(C)=O)c4)C[C@H]3N)C2)nc2ccccc21 [Compound 429, N-(3-((3S,4R)-3-amino-4-((R)-3-(1-(3-methoxypropyl)-1H-benzo[d]imidazol-2-yl)piperidine-1-carbonyl)pyrrolidin-1-ylsulfonyl)phenyl)acetamide]
100 to 1000	COCCCn1c([C@@H]2CCCN(C(=O)[C@@H]3CN(S(=O)(=O)c4cccc(Cl)c4)C[C@H]3N)C2)nc2ccccc21 [Compound 351, ((3R,4S)-4-amino-1-(3-chlorophenylsulfonyl)pyrrolidin-3-yl)((R)-3-(1-(3-methoxypropyl)-1H-benzo[d]imidazol-2-yl)piperidin-1-yl)methanone]
100 to 1000	COCCCn1c([C@@H]2CCCN(C(=O)[C@@H]3CN(S(=O)(=O)c4cccc(F)c4)C[C@H]3N)C2)nc2ccccc21 [Compound 428, ((3R,4S)-4-amino-1-(3-fluorophenylsulfonyl)pyrrolidin-3-yl)((R)-3-(1-(3-methoxypropyl)-1H-benzo[d]imidazol-2-yl)piperidin-1-yl)methanone]
